In patent publication US9513253B2, “Droplet actuators and techniques for droplet-based enzymatic assays” (Advanced Liquid Logic, Inc., priority 2011, dated 2016):

Assay: 4-MU partitioning assay, backward transfer partitioning (backward extraction; BE), effect of aqueous phase surfactants on 4-MU containment
Type: physicochemical
Settings: surfactant at 1.5 times its CMC; oil phase 5 cSt silicone oil with 0.1% w/v Triton X-15; lower signal = better 4-MU retention
From the text: The efficacy of different surfactants (detergents) in containing 4-MU (or derivatives) within an aqueous phase may, for example, be evaluated using a partitioning assay. Parameters that may be varied in the assay for evaluation of surfactants in aqueous containment of 4-MU (or derivatives) include, but are not limited to, the pH of the aqueous phase solution, and the critical micelle concentration of the surfactant.
The assay format includes forward transfer partitioning (forward extraction; FE) of 4-MU from an aqueous phase to an oil phase and backward transfer partitioning (backward extraction; BE) of 4-MU from an oil phase to an aqueous phase. The assay is performed in 96-well microtiter substrates; clear 96-well substrates (e.g., Costar 3631) for evaluation of forward transfer partitioning with bottom probe fluorescence detection and solid black 96-well substrates (e.g., Costar 3915) for evaluation of backward transfer partitioning with top probe fluorescence detection. A BioTek Synergy HT instrument with 3 mm top probe and 5 mm bottom probe, may, for example, be used for fluorescence measurements. […]

ANAPOE ®-20 (Tween ® 20) [AS17]
relative fluorescence reading, backward transfer partitioning (BE) of 4-MU: 43,000-44,000 RFU
